From US20080200403A1, “9A-Carbamoyl and Thiocarbamoyl Azalides with Anti-Inflammatory Activity” (GLAXOSMITHKLINE, priority 2005, published 2008)
Read-outs that look alike come from different tables or passages of the source.

Key:
Format in all cases: cell-based
IL-8 = test: Inhibition of IL-8 production by stimulated human peripheral blood leukocytes in vitro; conditions: PBL; for inhibition at 10 µM / inhibition at 50 µM: Homo sapiens, Leukocyte, read-out: Percentage of inhibition of IL-8 production
Protocol: (§1) Test substances used in in vitro experiments were dissolved in dimethyl sulfoxide (DMSO) (Kemika, Croatia) at concentrations of 50 mM and 10 mM, and were further diluted to final concentrations of 50 μM and 10 μM in 1 mL Dulbecco's modified Eagle medium (DMEM) supplemented with 1% heat inactivated fetal bovine serum (FBS), 1% L-glutamine, 50 U/ml penicillin, 50 μg/ml streptomycin and 2.5 μg/mL Fungizone (amphotericin B). Media and all media supplements were purchased from Gibco, Australia, except the FBS was purchased from Sigma, USA.
(§2) Peripheral blood leukocytes (PBL) were obtained from venous blood of healthy volunteers by sedimentation on 2% dextran T-500 (Amersham Biosciences, USA) and subsequent centrifugations of leukocyte rich plasma.
(§3) Peripheral blood leukocytes (PBL), isolated as described above, were seeded in a 48-well plate at a concentration of 3 to 5×10^6 cell per well in culture medium consisting of RPMI 1640 medium (Institute of Immunology, Croatia) supplemented with 10% heat-inactivated fetal calf serum (FCS, Biowhittaker, USA), 100 U/ml penicillin (Gibco, Australia), 100 μg/ml streptomycin (Gibco, Australia) and 2 mM L-glutamine (Gibco, Australia), and preincubated with the test compounds for 2 h at 37° C., in an atmosphere of 5% CO2, and 90% humidity. Then, stimuli (Sigma, USA) were added to a final concentration of 2 μg/mL lipopolysaccharide (LPS), 1 μg/mL phorbol 12-myristate 13-acetate (PMA) or 120 μg/mL zymosan. Samples were incubated overnight under conditions described above. At the end of incubation, the supernatants were transferred to eppendorf tubes and centrifuged for 10 min at 1500×g. Concentrations of human TNF-α, IL-1β, IL-6 and IL-8 were determined in cell supernatants by sandwich ELISA, using capture and detection antibodies (R&D Systems, Minneapolis, Minn.) according to the manufacturer's recommendations.
(§4) Inhibition (as percentage) was calculated using the following formula: % inhibition=(1−concentration of cytokines in sample/concentration of cytokines in positive control)×100. The positive control refers to stimulated samples, not treated with substances.

TNF-α = test: Inhibition of TNF-α production by stimulated human peripheral blood leukocytes in vitro; conditions: PBL; for inhibition at 10 µM / inhibition at 50 µM: Homo sapiens, Leukocyte, read-out: Percentage of inhibition of TNF-α production
Protocol: as §1, §2, §3, §4

IL-1α = test: Inhibition of IL-1 production by stimulated human peripheral blood leukocytes in vitro; conditions: PBL; for inhibition at 10 µM / inhibition at 50 µM: Homo sapiens, Leukocyte, read-out: Percentage of inhibition of IL-1α production
IL-6 = test: Inhibition of IL-6 production by stimulated human peripheral blood leukocytes in vitro; conditions: PBL; for inhibition at 10 µM / inhibition at 50 µM: Homo sapiens, Leukocyte, read-out: Percentage of inhibition of IL-6 production
Protocol: as §1, §2, §3, §4

[1] = test system: human peripheral blood mononuclear cells (PBMC); test: Human T-cell proliferation in vitro (3H-thymidine incorporation); conditions: for inhibition at 10 µM / inhibition at 50 µM: Homo sapiens, PBMC, read-out: Percentage of inhibition of proliferation of stimulated PBMC
Protocol: Influence of substances at two different concentrations (50 μM and 10 μM) on cell proliferation of human peripheral blood mononuclear cells (PBMC) was assessed.
Heparinized peripheral blood was obtained from healthy donors, and PBMC were isolated by Histopaque 1077 (Sigma, USA) density centrifugation at 400×g for 30 minutes. 5×10^4 cells/well were cultured for 3 days in the RPMI medium as described above, in the presence (positive control) or absence (negative control) of stimulators [PHA (2.5 μg/mL) (Sigma, USA), or both PMA (10 ng/mL) (Sigma, USA) and ionomycin (500 ng/mL) (Calbiochem, USA)], and in the presence of the test compounds, at 37° C. in an atmosphere of 5% CO2 and 90% humidity. The cells were pulsed with 1 μCi of ^3H-thymidine (Amersham, USA) per well during the last 18 h of the culture, and were harvested on the 96-well filter (Packard Bioscience, USA) using a multiple cell harvester (Packard, USA). The incorporation of ^3H-thymidine in activated cells were measured using TopCount NXT (Packard, USA).
Inhibition (as percentage) was calculated using the following formula: % inhibition=(1−(^3H)thymidine incorporation expressed in counts per minute (cpm) in sample/(^3H)thymidine incorporation expressed in cpm in positive control)×100
where positive control refers to stimulated samples, not treated with substances.

[2] = zymosan stimulated, compound 10 μM
[3] = zymosan stimulated, compound 50 μM
[4] = PMA + ionomycin stimulated, compound 10 μM
[5] = PMA + ionomycin stimulated, compound 50 μM

CC[C@H]1OC(=O)[C@H](C)[C@@H](O)[C@H](C)[C@@H](O[C@@H]2O[C@H](C)C[C@H](N(C)C)[C@H]2O)[C@](C)(O)C[C@@H](C)CN(C(=O)NCc2ccccc2)[C@H](C)[C@@H](O)[C@]1(C)O [Compound 8]
Percentage of inhibition of IL-8 production (IL-8; LPS stimulated, compound 10 μM): 48%
Percentage of inhibition of IL-8 production (IL-8; LPS stimulated, compound 50 μM): 0%
Percentage of inhibition of IL-8 production (IL-8; PMA stimulated, compound 10 μM): 37%
Percentage of inhibition of IL-8 production (IL-8; PMA stimulated, compound 50 μM): 0%
Percentage of inhibition of IL-8 production (IL-8; [2]): 0%
Percentage of inhibition of IL-8 production (IL-8; [3]): 0%
Percentage of inhibition of TNF-α production (TNF-α; LPS stimulated, compound 10 μM): 58%
Percentage of inhibition of TNF-α production (TNF-α; LPS stimulated, compound 50 μM): 30%
Percentage of inhibition of TNF-α production (TNF-α; PMA stimulated, compound 10 μM): 56%
Percentage of inhibition of TNF-α production (TNF-α; PMA stimulated, compound 50 μM): 54%
Percentage of inhibition of TNF-α production (TNF-α; [2]): 16%
Percentage of inhibition of TNF-α production (TNF-α; [3]): 0%
Percentage of inhibition of IL-1α production (IL-1α; LPS stimulated, compound 10 μM): 42%
Percentage of inhibition of IL-1α production (IL-1α; LPS stimulated, compound 50 μM): 40%
Percentage of inhibition of IL-1α production (IL-1α; PMA stimulated, compound 10 μM): 26%
Percentage of inhibition of IL-1α production (IL-1α; PMA stimulated, compound 50 μM): 0%
Percentage of inhibition of IL-1α production (IL-1α; [2]): 16%
Percentage of inhibition of IL-1α production (IL-1α; [3]): 17%
Percentage of inhibition of IL-6 production (IL-6; LPS stimulated, compound 10 μM): 60%
Percentage of inhibition of IL-6 production (IL-6; LPS stimulated, compound 50 μM): 82%
Percentage of inhibition of IL-6 production (IL-6; [2]): 20%
Percentage of inhibition of IL-6 production (IL-6; [3]): 18%
Percentage of inhibition of proliferation of stimulated PBMC ([1]; PHA stimulated, compound 10 μM): 0%
Percentage of inhibition of proliferation of stimulated PBMC ([1]; PHA stimulated, compound 50 μM): 0%
Percentage of inhibition of proliferation of stimulated PBMC [1, 4]: 0%
Percentage of inhibition of proliferation of stimulated PBMC [1, 5]: 0%

CC[C@H]1OC(=O)[C@H](C)[C@@H](O)[C@H](C)[C@@H](O[C@@H]2O[C@H](C)C[C@H](N(C)C)[C@H]2O)[C@](C)(O)C[C@@H](C)CN(C(=O)Nc2cccc(C(F)(F)F)c2)[C@H](C)[C@@H](O)[C@]1(C)O [Compound 13]
inhibition at 10 µM (IL-8; LPS stimulated, compound 10 μM): 0%
inhibition at 50 µM (IL-8; LPS stimulated, compound 50 μM): 0%
inhibition at 10 µM (IL-8; PMA stimulated, compound 10 μM): 0%
inhibition at 50 µM (IL-8; PMA stimulated, compound 50 μM): 25%
inhibition at 10 µM (IL-8; [2]): 62%
inhibition at 50 µM (IL-8; [3]): 0%
inhibition at 10 µM (TNF-α; LPS stimulated, compound 10 μM): 0%
inhibition at 50 µM (TNF-α; LPS stimulated, compound 50 μM): 0%
inhibition at 10 µM (TNF-α; PMA stimulated, compound 10 μM): 0%
inhibition at 50 µM (TNF-α; PMA stimulated, compound 50 μM): 0%
inhibition at 10 µM (TNF-α; [2]): 0%
inhibition at 50 µM (TNF-α; [3]): 52%
inhibition at 10 µM (IL-1α; LPS stimulated, compound 10 μM): 0%
inhibition at 50 µM (IL-1α; LPS stimulated, compound 50 μM): 52%
inhibition at 10 µM (IL-1α; PMA stimulated, compound 10 μM): 0%
inhibition at 50 µM (IL-1α; PMA stimulated, compound 50 μM): 32%
inhibition at 10 µM (IL-1α; [2]): 34%
inhibition at 50 µM (IL-1α; [3]): 89%
inhibition at 10 µM (IL-6; LPS stimulated, compound 10 μM): 0%
inhibition at 50 µM (IL-6; LPS stimulated, compound 50 μM): 0%
inhibition at 10 µM (IL-6; PMA stimulated, compound 10 μM): 84%
inhibition at 50 µM (IL-6; PMA stimulated, compound 50 μM): 100%
inhibition at 10 µM (IL-6; [2]): 52%
inhibition at 50 µM (IL-6; [3]): 94%
inhibition at 10 µM ([1]; PHA stimulated, compound 10 μM): 11%
inhibition at 50 µM ([1]; PHA stimulated, compound 50 μM): 42%
inhibition at 10 µM [1, 4]: 21%
inhibition at 50 µM [1, 5]: 43%
